The source of these data is patent US20100311674A1, “PHARMACEUTICAL COMPOSITIONS WITH A MECHANISM OF MULTI-TARGET RECEPTOR RETROACTION FOR TREATING DEPRESSION” (Yu-Fen Chi, priority 2007, published 2010).

Assay [1] is described as follows: Body weight measurement, unpredictable long-term stimulus model (Experiment 8). As to conditions: 2 mg/kg/d into the stomach, 24 days. It counts as in vivo, rat. As for the experimental part: Unpredictable long-term stimulus model: Health Wistar male rats, secondary, 240˜270 g of body weight, are purchased from Beijing Vital River Experimental Animal Technology Ltd. Co. (The quality certificate number: SOCK (JING) 2002-2003).
The above pharmaceuticals are prepared with 0.5% of sodium carboxymethylcellulose (CMC-Na) for feeding into the stomach. Benzylpenicillin sodium for injection is the product of North China Pharmaceutical Huasheng Co. Ltd. (Lot: S0511204), and norepinephrine (NE) and 5-hydrotryptamine (5-HT) standards are the products of Sigma Co. Other reagents are all marketed.
8.4.1 Group division and administration of drug: The rats are grouped randomly into 6 groups. 1. False therapy group; 2. model group (control); 3. high dose of Embodiment 4 (60 mg/kg/d); 4. middle dose of Embodiment 4 (30 mg/kg/d); 5. low dose of Embodiment 4 (15 mg/kg/d); and 6. […] The test drugs and the positive control drug are prepared with 0.5% of CMC-Na for feeding into the stomach once every day.
Unpredictable long-term stimulus model: The rats in the control group eat and drink normally, and there is no stimulus performed. […]
(§1) 8.6 Statistic calculation: The experimental data are represented as […], and the experimental result is calculated as ANOVA by SPSS 11.5 statistic software.

Assay [2] concerns unpredictable long-term stimulus model. Nature of the assay: Step-through test (passive avoidance), unpredictable long-term stimulus model (Experiment 8). In kind it is in vivo, rat. As to conditions: 2 mg/kg/d into the stomach, 24 days.
Text: 7.5.2 Passive avoidance experiment (Step-through test): The step through box is configured by the light chamber and the dark chamber, and a channel is linked between the bright chamber and the dark chamber for mouse entrance and exit. The grille of the dark chamber is connected to the electric shock equipment, and a mobile plate is set there between. If the rat enters into the dark chamber, the rat will be electrically shocked. During training, the rat is placed in the light chamber and is back in the hole for adaptation for 5 minutes. Then the plate is removed and the rat is observed for another 5 minutes. The time that the rat enters into for the first time is recorded (electric-shocking latent period), and the time thereof is the learning record. After 24 hours, the test is repeated. The plate is removed and the dark chamber is electrified for 5 minutes so as to observe the time that the rat enters into the dark chamber for the first time. This is thereof the memory record.
Unpredictable long-term stimulus model: Health Wistar male rats, secondary, 240˜270 g of body weight, are purchased from Beijing Vital River Experimental Animal Technology Ltd. Co. (The quality certificate number: SOCK (JING) 2002-2003). […]
as §1

Assay [3] has as its system ICR mice. Nature of the assay: Mouse tail-hanging test of the debris mixture (Experiment 11). As to conditions: 3 mg/kg P.O. 7 days; 1 h after last dose; last 5 of 6 min. It counts as in vivo. An excerpt: Nine (9) kg of the remained ginseng debris, 7 kg of the remained liquorice debris and 0.9 kg of the jujuba debris from the Embodiments 1 and 4 extraction procedures are collected, dried, pulverized, and mixed well for obtaining the debris mixture containing the trace amount of ginsenoside Rg1 and Rb1, glycyrrhizic acid and jujuba cAMP. The control experiment of examining the influence of the debris in the mouse tail-hanging test is proceeded. 11.1 Experimental animals: ICR mice, male, 22.0±2 g of body weight, secondary, are provided by the Experimental Animal Science Department of Capital Medical University, Beijing. 11.2 Experiment pharmaceuticals: The debris mixture is provided by Beijing Wonner Biotech. […] High dose of debris mixture (160 mg/kg/d); 2. middle dose of debris mixture (80 mg/kg/d); and 3. low dose of debris mixture (40 mg/kg/d). 11.5.1 Group division and administration of drug: The mice are grouped randomly with 10 mice in each group. 1. […] The time of non-movement of the mouse for the last 5 minutes is recorded. 11.5.3 Statistic calculation: The experimental data are represented as X±SD, and the experimental result is calculated as ANOVA by SPSS 11.5 statistic software.

For `Fc1ccc([C@@H]2CCNC[C@H]2COc2ccc3c(c2)OCO3)cc1` [Paroxetine], the Increasing body weight in assay [1] is 96.85 ± 9.30 g. The “Latent period of first day” value in assay [2] (learning record) was 75.75 ± 46.52 s. Further, the “Latent period of second day” value in assay [2] (memory record) is 257.46 ± 66.92 s. Moreover, in assay [3], the Time of non-movement was found to be 38.37 ± 20.76 s.
